Each block holds one compound with its values, some of them ahead of it.
What was measured:
[1] = Inhibition of VEGF-mediated proliferation of HMVEC after 72 hrs; format: functional, cell-based; settings: Homo sapiens
[2] = target: Fibroblast growth factor receptor 1 (Homo sapiens, UniProt P11362); assay: Inhibition of human recombinant FGFR1
[3] = target: Vascular endothelial growth factor receptor 2 (Homo sapiens, UniProt P35968)
[4] = target: Platelet-derived growth factor receptor beta (Homo sapiens, UniProt P09619); assay: Inhibition of human recombinant PDGFRbeta
[5] = Oral bioavailability in mouse at 20 mg/kg; format: ADME, organism-based; settings: in vivo
DU-145 [6] = assay: Antitumor activity against human DU145 cells xenografted nude mouse; format: functional
DU-145 [7] = assay: Antitumor activity against PDGFRbeta expressing human DU145 cells xenografted nude mouse assessed as tumor growth inhibition at 30 mg/kg/day, po; format: functional; settings: read-out: TGI
[8] = Half life in mouse at 5 mg/kg, iv; format: ADME, organism-based; set-up: dose 5 mg/kg, route intravenous; settings: in vivo
MV4-11 [9] = assay: Antitumor activity against PDGFRbeta expressing human MV4-11 cells xenografted SCID-NOD mouse assessed as tumor growth inhibition at 30 mg/kg/day, po; format: functional; settings: read-out: TGI
DU-145 [10] = assay: Antitumor activity against VEGFR expressing human DU145 cells xenografted nude mouse assessed as tumor growth inhibition at 10 mg/kg/day, po; format: functional; settings: read-out: TGI
[11] = Volume of distribution at steady state in mouse at 5 mg/kg, iv; format: ADME, organism-based; set-up: dose 5 mg/kg, route intravenous; settings: in vivo, read-out: Vdss
MV4-11 [12] = assay: Antitumor activity against FLT3 ITD expressing human MV4-11 cells xenografted SCID-NOD mouse assessed as tumor growth inhibition at 1 mg/kg/day, po; format: functional; settings: read-out: TGI
[13] = Clearance in rat at 5 mg/kg, iv; format: ADME, organism-based; set-up: dose 5 mg/kg, route intravenous; settings: in vivo
[14] = Oral bioavailability in rat at 20 mg/kg; format: ADME, organism-based; settings: in vivo
[15] = Volume of distribution at steady state in rat at 5 mg/kg, iv; format: ADME, organism-based; set-up: dose 5 mg/kg, route intravenous; settings: in vivo, read-out: Vdss
[16] = Cmax in rat at 20 mg/kg, po; format: ADME, organism-based; set-up: dose 20 mg/kg, route oral; settings: in vivo
MV4-11 [17] = assay: Antitumor activity against VEGFR expressing human MV4-11 cells xenografted SCID-NOD mouse assessed as tumor growth inhibition at 5 mg/kg/day, po; format: functional; settings: read-out: TGI
Mus musculus [18] = species on record: Mus musculus; assay: Antiangiogenic activity in BDF1 mouse Matrigel model assessed as inhibition of bFGF-mediated angiogenesis; format: functional
[19] = AUC in rat at 20 mg/kg, po; format: ADME, organism-based; set-up: dose 20 mg/kg, route oral; settings: plasma
[20] = AUC in mouse at 20 mg/kg, po; format: ADME, organism-based; set-up: dose 20 mg/kg, route oral; settings: plasma
DU-145 [21] = assay: Antitumor activity against FGFR expressing human DU145 cells xenografted nude mouse assessed as tumor growth inhibition at 100 mg/kg/day, po; format: functional; settings: read-out: TGI
[22] = Antitumor activity against PDGFRbeta expressing human KM12L4A cells xenografted nude mouse assessed as tumor growth inhibition at 30 mg/kg/day, po; format: functional; settings: read-out: TGI
MV4-11 [23] = assay: Antitumor activity against human MV4-11 cells xenografted SCID-NOD mouse; format: functional
[24] = Cmax in mouse at 20 mg/kg, po; format: ADME, organism-based; set-up: dose 20 mg/kg, route oral; settings: in vivo
MV4-11 [25] = assay: Antitumor activity against cKit expressing human MV4-11 cells xenografted SCID-NOD mouse assessed as tumor growth inhibition at 10 mg/kg/day, po; format: functional; settings: read-out: TGI
Mus musculus [26] = assay: Antiangiogenic activity in BDF1 mouse Matrigel model assessed as inhibition of bFGF-mediated angiogenesis at 3 mg/kg, po for 8 days by colorimetric assay; format: functional; set-up: scale not given: the % may be the effect or the level left
[27] = Antitumor activity against VEGFR expressing human KM12L4A cells xenografted nude mouse assessed as tumor growth inhibition at 10 mg/kg/day, po; format: functional; settings: read-out: TGI
[28] = Antitumor activity against human KM12L4A cells xenografted nude mouse; format: functional
[29] = Clearance in mouse at 5 mg/kg, iv; format: ADME, organism-based; set-up: dose 5 mg/kg, route intravenous; settings: in vivo
[30] = Half life in rat at 5 mg/kg, iv; format: ADME, organism-based; set-up: dose 5 mg/kg, route intravenous; settings: in vivo
[31] = Antitumor activity against PDGFRbeta expressing human KM12L4A cells xenografted nude mouse assessed as tumor growth inhibition at 100 mg/kg/day, po; format: functional; settings: read-out: TGI

Sequence of Vascular endothelial growth factor receptor 2 (P35968 whole entry): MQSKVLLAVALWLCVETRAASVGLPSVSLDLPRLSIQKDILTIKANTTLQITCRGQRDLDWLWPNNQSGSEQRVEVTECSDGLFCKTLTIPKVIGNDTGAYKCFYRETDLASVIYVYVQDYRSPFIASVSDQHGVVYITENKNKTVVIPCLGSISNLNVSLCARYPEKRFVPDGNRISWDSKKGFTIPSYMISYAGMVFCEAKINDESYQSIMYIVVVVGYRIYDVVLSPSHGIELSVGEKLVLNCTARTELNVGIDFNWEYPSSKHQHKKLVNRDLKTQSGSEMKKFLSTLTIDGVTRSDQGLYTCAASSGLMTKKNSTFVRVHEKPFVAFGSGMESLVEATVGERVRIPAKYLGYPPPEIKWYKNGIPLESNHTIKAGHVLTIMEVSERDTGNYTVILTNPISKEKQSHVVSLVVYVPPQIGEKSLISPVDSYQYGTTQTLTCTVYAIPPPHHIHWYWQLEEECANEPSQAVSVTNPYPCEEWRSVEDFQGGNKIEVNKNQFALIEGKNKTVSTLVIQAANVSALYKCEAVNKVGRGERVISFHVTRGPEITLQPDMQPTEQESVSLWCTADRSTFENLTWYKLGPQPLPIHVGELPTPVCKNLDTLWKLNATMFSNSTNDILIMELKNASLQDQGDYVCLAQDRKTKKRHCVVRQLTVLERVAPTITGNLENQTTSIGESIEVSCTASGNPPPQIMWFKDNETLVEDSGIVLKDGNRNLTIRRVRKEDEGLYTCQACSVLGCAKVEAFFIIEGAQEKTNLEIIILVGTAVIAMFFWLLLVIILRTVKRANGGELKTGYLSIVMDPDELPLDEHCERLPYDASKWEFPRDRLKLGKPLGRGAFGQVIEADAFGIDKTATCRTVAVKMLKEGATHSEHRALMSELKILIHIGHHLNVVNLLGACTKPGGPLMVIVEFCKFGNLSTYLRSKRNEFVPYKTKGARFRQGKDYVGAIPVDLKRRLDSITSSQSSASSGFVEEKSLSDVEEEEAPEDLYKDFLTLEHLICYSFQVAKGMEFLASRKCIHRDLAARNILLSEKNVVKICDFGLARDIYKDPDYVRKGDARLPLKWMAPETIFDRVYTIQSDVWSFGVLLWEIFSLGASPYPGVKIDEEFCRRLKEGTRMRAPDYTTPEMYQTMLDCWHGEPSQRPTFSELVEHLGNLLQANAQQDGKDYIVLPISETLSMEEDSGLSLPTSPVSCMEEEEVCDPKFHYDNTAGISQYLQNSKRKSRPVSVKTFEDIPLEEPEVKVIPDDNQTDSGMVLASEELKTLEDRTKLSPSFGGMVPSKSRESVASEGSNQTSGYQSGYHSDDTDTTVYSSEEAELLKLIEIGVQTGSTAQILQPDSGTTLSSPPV
Sequence of Platelet-derived growth factor receptor beta (P09619 whole entry): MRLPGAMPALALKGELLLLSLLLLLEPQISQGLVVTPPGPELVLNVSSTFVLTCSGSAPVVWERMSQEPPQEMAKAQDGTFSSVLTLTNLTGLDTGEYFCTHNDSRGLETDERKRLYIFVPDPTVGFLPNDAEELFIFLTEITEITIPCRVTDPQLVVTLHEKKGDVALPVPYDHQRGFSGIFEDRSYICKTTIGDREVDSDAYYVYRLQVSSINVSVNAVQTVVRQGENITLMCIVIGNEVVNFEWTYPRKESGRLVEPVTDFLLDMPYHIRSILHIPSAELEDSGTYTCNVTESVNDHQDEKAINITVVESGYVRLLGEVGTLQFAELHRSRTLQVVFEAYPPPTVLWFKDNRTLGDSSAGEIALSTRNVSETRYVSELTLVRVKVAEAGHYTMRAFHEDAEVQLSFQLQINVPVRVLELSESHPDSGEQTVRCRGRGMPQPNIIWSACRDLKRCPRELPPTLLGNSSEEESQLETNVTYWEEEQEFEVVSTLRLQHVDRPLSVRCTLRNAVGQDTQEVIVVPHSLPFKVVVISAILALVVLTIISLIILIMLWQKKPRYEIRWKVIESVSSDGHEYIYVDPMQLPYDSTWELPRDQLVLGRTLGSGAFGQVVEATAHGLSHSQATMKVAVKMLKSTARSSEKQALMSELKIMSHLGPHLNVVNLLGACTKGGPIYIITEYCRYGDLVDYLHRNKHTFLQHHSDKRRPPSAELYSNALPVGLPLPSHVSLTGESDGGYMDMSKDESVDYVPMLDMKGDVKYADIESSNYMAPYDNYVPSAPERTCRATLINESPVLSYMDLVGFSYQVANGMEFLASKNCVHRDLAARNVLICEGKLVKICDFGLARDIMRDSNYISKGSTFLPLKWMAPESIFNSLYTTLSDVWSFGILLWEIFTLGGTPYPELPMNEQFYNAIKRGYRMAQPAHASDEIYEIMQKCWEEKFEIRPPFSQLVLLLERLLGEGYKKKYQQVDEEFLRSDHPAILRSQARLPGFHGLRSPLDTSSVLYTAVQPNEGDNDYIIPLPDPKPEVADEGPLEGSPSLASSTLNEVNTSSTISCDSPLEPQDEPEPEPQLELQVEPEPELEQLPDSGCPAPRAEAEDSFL
Sequence of Fibroblast growth factor receptor 1 (P11362 whole entry): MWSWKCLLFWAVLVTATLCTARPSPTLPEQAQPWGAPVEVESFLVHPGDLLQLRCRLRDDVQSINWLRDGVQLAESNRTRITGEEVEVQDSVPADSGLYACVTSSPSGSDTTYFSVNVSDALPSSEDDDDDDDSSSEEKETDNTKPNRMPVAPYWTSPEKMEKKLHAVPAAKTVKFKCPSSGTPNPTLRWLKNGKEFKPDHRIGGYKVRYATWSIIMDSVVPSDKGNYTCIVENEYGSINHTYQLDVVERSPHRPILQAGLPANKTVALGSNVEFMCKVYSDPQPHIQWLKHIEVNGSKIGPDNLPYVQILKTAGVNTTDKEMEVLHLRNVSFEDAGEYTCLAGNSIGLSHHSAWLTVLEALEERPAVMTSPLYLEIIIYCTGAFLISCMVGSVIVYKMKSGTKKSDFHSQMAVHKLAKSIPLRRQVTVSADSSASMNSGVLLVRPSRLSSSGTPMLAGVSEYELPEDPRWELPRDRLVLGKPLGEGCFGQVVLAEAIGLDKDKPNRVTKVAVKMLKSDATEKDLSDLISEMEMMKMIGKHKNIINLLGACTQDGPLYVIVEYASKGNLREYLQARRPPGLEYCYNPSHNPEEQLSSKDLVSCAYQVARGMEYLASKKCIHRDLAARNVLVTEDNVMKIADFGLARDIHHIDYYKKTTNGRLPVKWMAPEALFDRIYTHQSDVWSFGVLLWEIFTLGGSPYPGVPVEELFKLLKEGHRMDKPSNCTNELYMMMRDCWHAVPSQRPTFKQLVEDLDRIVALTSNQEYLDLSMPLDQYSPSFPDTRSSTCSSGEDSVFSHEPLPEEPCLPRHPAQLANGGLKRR

- IC50 [2]: 15 nM
- IC50 [3]: 53 nM
- IC50 [4]: 2 nM
Compound: CNc1cccc2[nH]c(=O)c(-c3nc4ccc(N5CCN(C)CC5)cc4[nH]3)c(N)c12
- EC50 [1]: 17 nM

- IC50 [2]: 40 nM
- IC50 [3]: 78 nM
- IC50 [4]: 1 nM
Compound: CN1CCN(c2ccc3nc(-c4c(N)c5cc(F)ccc5[nH]c4=O)[nH]c3c2)CC1
- EC50 [1]: 10 nM

- IC50 [2]: 7 nM
- IC50 [3]: 19 nM
- IC50 [4]: 7 nM
Compound: CN1CCN(c2ccc3nc(-c4c(N)c5cc(N)ccc5[nH]c4=O)[nH]c3c2)CC1
- EC50 [1]: 17 nM

- IC50 [2]: 3 nM
- IC50 [3]: 14 nM
- IC50 [4]: 0.4 nM
Compound: CN1CCN(c2ccc3nc(-c4c(N)c5ccc(F)cc5[nH]c4=O)[nH]c3c2)CC1
- EC50 [1]: 34 nM

- IC50 [2]: 80 nM
- IC50 [3]: 220 nM
- IC50 [4]: 30 nM
Compound: Cc1ccc2nc(-c3c(N)c4ccccc4[nH]c3=O)[nH]c2c1
- EC50 [1]: 64 nM

- IC50 [2]: 70 nM
- IC50 [3]: 210 nM
- IC50 [4]: 12 nM
Compound: Cc1cc2nc(-c3c(N)c4ccccc4[nH]c3=O)[nH]c2cc1C
- EC50 [1]: 150 nM

Compound: CN1CCN(C(=O)c2ccc3[nH]c(-c4c(N)c5ccccc5[nH]c4=O)nc3c2)CC1
- EC50 [1]: 45 nM
- IC50 [2]: 10 nM
- IC50 [3]: 26 nM
- IC50 [4]: 0.9 nM

- IC50 [2]: 30 nM
- IC50 [3]: 130 nM
- IC50 [4]: 5 nM
Compound: CN1CCN(c2ccc3[nH]c(-c4c(N)c5c(F)cc(F)cc5[nH]c4=O)nc3c2)CC1
- EC50 [1]: 80 nM

- IC50 [2]: 1800 nM
- IC50 [3]: 5300 nM
- IC50 [4]: 30 nM
Compound: CN1CCN(c2ccc3nc(-c4c(N)c5cc(F)c(N(C)C)cc5[nH]c4=O)[nH]c3c2)CC1
- EC50 [1]: 3300 nM

Compound: CN1CCN(c2cccc3[nH]c(=O)c(-c4nc5ccccc5[nH]4)c(N)c23)CC1
- EC50 [1]: 340 nM
- IC50 [2]: 1 nM
- IC50 [3]: 17 nM
- IC50 [4]: 0.3 nM

- IC50 [2]: 120 nM
- IC50 [3]: 220 nM
- IC50 [4]: 30 nM
Compound: CNc1c(-c2nc3ccccc3[nH]2)c(=O)[nH]c2ccccc12
- EC50 [1]: 280 nM

- IC50 [2]: 110 nM
- IC50 [3]: 190 nM
- IC50 [4]: 3 nM
Compound: CN1CCN(c2ccc3[nH]c(-c4c(N)c5cc(F)c(F)cc5[nH]c4=O)nc3c2)CC1
- EC50 [1]: 480 nM

Compound: CN1CCCN(c2ccc3[nH]c(-c4c(N)c5ccccc5[nH]c4=O)nc3c2)CC1
- EC50 [1]: 25 nM
- IC50 [2]: 20 nM
- IC50 [3]: 66 nM
- IC50 [4]: 5 nM

- IC50 [2]: > 25000 nM
- IC50 [3]: 5800 nM
- IC50 [4]: 19000 nM
Compound: Cn1c(=O)c(-c2nc3ccccc3[nH]2)c(O)c2ccccc21
- EC50 [1]: 4600 nM

- IC50 [2]: 24 nM
- IC50 [3]: 43 nM
- IC50 [4]: 8 nM
Compound: CN1CCN(c2ccc3[nH]c(-c4c(N)c5cc(Cl)ccc5[nH]c4=O)nc3c2)CC1
- EC50 [1]: 39 nM

Compound: O=c1[nH]c2ccccc2c(NCC2CCNCC2)c1-c1nc2ccccc2[nH]1
- EC50 [1]: 100 nM
- IC50 [2]: 550 nM
- IC50 [3]: 940 nM
- IC50 [4]: 0.9 nM

Compound: CN1CCN(c2ccc3nc(-c4c(N)c5cc(C(=O)NCc6ccccc6)ccc5[nH]c4=O)[nH]c3c2)CC1
- EC50 [1]: 120 nM
- IC50 [2]: 10 nM
- IC50 [3]: 50 nM
- IC50 [4]: 0.1 nM

Compound: Nc1c(-c2nc3ccc(OCCN4CCOCC4)cc3[nH]2)c(=O)[nH]c2ccccc12
- EC50 [1]: 37 nM
- IC50 [2]: 20 nM
- IC50 [3]: 66 nM
- IC50 [4]: 5 nM

- IC50 [2]: 190 nM
- IC50 [3]: 560 nM
- IC50 [4]: 14 nM
Compound: CN1CCN(c2ccc3[nH]c(-c4c(N)c5cccc(F)c5[nH]c4=O)nc3c2)CC1
- EC50 [1]: 420 nM

- bioavailability [5]: 77%
- half-life [8]: 2.7 h
- Vd [11]: 12 L/kg
- clearance [13]: 43 mL/min/kg
- bioavailability [14]: 73%
- Vd [15]: 13 L/kg
- Cmax [16]: 480 ng/mL
- AUC [19]: 5670 ng·h/mL
- AUC [20]: 6000 ng·h/mL
- Cmax [24]: 670 ng/mL
- clearance [29]: 42 mL/min/kg
- half-life [30]: 3.5 h
Compound: CN1CCN(c2ccc3nc(-c4c(N)c5c(F)cccc5[nH]c4=O)[nH]c3c2)CC1 [DOVITINIB]
- ED50 (DU-145 [6]): 23 mg/kg
- minimal effective dose (DU-145 [6]; read-out: MED): 30 mg/kg
- inhibition in vivo at 30 mg/kg/day (DU-145 [7]): 70%
- inhibition in vivo at 30 mg/kg/day (MV4-11 [9]): 96%
- inhibition in vivo at 10 mg/kg/day (DU-145 [10]): 39%
- inhibition in vivo at 1 mg/kg/day (MV4-11 [12]): 23%
- inhibition in vivo at 5 mg/kg/day (MV4-11 [17]): 65%
- ED50 (Mus musculus [18]): 3 mg/kg
- EC50 [1]: 13 nM
- inhibition in vivo at 100 mg/kg/day (DU-145 [21]): 86%
- inhibition in vivo at 30 mg/kg/day [22]: 55%
- ED50 (MV4-11 [23]): 3 mg/kg
- minimal effective dose (MV4-11 [23]; read-out: MED): 1 mg/kg
- inhibition in vivo at 10 mg/kg/day (MV4-11 [25]): 92%
- Activity (Mus musculus [26]): 54%
- inhibition in vivo at 10 mg/kg/day [27]: 44%
- ED50 [28]: 17 mg/kg
- minimal effective dose ([28]; read-out: MED): 10 mg/kg
- inhibition in vivo at 100 mg/kg/day [31]: 95%

Reference: ChEMBL document CHEMBL1139379, “Design, structure-activity relationships and in vivo characterization of 4-amino-3-benzimidazol-2-ylhydroquinolin-2-ones: a novel class of receptor tyrosine kinase inhibitors” (J Med Chem, 2009)
